“Also recorded” adds a separate entry of the source.
Tests used:
[1] = test system: Serca1 exon 22 splicing; assay: Semi-quantitative RT-PCR of Serca1 splicing in HSA LR mouse skeletal muscle; format: in vivo; conditions: three days a/i
Protocol: FIG. 8. Recovering of disease phenotypes (molecular, histological and functional) in in vivo DM1 mice (HSA^LR). Upper section: VLT002 and VLT025 suppressed splicing defects in DM1 mouse skeletal muscles. VLT002 (10 μg) and VLT025 (100 μg) were intramuscular injected in the right tibialis anterior (TA) and left quadriceps (Q), respectively, of HSA^LR mice that expressed 300 CTG repeats. […] All graphs show the mean and SEM from VLT002 and VLT025-responsive animals. Middle section: Immunofluorescent detection of trans-membrane Clcn1 protein (cell outlines in gray) in quadriceps sections of no-DM1 mouse (control) and HSA^LR mice without treatment (10150.5 QD-DMSO treated) and after VLT025 treatment (10150.5 QI).
Additional assays involved: • Reverse Transcription-PCR (RT-PCR) to detect levels of normal/aberrant splicing events in specific genes. […] Serca 1, Cypher or cTNNT genes reverse transcription were performed and quantification of normal/aberrant spliced band forms was obtained (ImageJ software) after running PCR products in 2% agarose gels. […] Muscle area was quantified (see FIG. 3) by binarizing images (equal dimensions) and quantifying pixels (%) within muscle tissue with ImageJ software. […] A minimum of 8 flies were analyzed in each case.

[2] = test system: FAM-(CUG)10 RNA; assay: Gel retardation assay (fluorescence EMSA) with FAM-(CUG)10; format: binding
Protocol: FIG. 6. Study of the binding of some compounds of Formula I (VLT002, VLT025 and VLT026) to FAM-(CUG)10 (repeat tract present in DM1, HDL2, SCA8 diseases) by means of gel retardation assays.
Fluorescence Electrophoretic Mobility Shift Assay to test RNA-compound binding. Briefly, an aliquot of carboxyfluorescein (FAM)-CUG10 RNA (DM1, HDL2, SCA8; see FIG. 6) was heated at 70° C. for 5 min and diluted to 300 nM. The binding reaction with compounds was then carried out as described in (Garcia-Lopez A et al. Proc. Natl. Acad. Sci. USA. 108(29):11866-71 (2011)). The reaction mix was loaded onto 8% polyacrylamide nondenaturing gels, and electrophoresis was conducted at 4° C. in TB 1× for approximately 30 min at 240V, followed by fluorescence visualization. Quantification of the free RNA band intensity was carried out using the ImageJ software. A non-linear regression analysis was used to calculate EC50, based on a total of three experimental replicates. Same approach was developed with (FAM)-CCUG8 (DM2), CAG10 (SCA3), CGG10 (FXTAS), GGGGCC5 (ALS/FSD), UGGAA6 (SCA31) probes (see FIG. 9).

[3] = test system: (CUG)23 RNA hairpin; assay: 2-Aminopurine fluorescence assay of hairpin RNA unfolding; format: biochemical; conditions: for modification of the hairpin loops formed by the CUG repeats (2-AP fluorescence): (CUG)23 RNA, dose-range
Protocol: FIG. 7. […] Measurements of the fluorescence emitted (Y-axis), measured as relative fluorescence units (RFU), by 2-aminopurine in a (CUG)23 RNA (1 μM) in the presence of different compounds (dose-range approach), relative to the fluorescence emitted by the free RNA. […] These effects were not observed when incubating the RNA with DMSO (not shown), or with the small molecule pentamidine, published as a compound able to disrupt MBNL1 binding to CUG hairpins (Warf M B et al. Proc. Natl. Acad. Sci. USA 106:18551-56 (2009)). * indicates p-value <0.05 ** p-value <0.005 *** p-value p<0.0005.
Aminopurine Fluorescence assay to detect hairpin double strand RNA unfolding. An aliquot of 2-aminopurine (2AP)-CUG23 RNA (1 μM in binding buffer) was heated at 90° C. for 3 min, placed on ice, and further diluted to 30 nM in a final volume of 1 mL in binding buffer.

[4] = test system: MBNL1; assay: Visualization and quantification of MBNL1 release in DM1 fibroblasts; format: cell-based, human; conditions: 100 μM
Protocol: FIG. 4. Visualization and quantification of MBNL1 release (A). Visualization of MBNL1 release for VLT002: Upper row: Untreated DM1 fibroblasts with MBNL1 localizing as ribonuclear foci (see dots in middle and right pictures) to the nucleus (DAPI, detected as gray spherical shadow in left and right pictures). […] (B) Quantification of the area (into the nucleus), where MBNL1 present (Photoshop software), reflects the MBNL1 release after VLT002, VLT025, VLT045, VLT049 and VLT040 treatment (100 μM).
At the same time human cells were recollected for foci counting. Some (150,000-300,000) were prepared for Muscleblind (MBNL1) detection (see FIG. 4). After PBS washes, cells were probed overnight, at 4° C. with anti-MBNL1 antibody (1:5000 dilutions, A2764 antibody) in 1×PBS. After washing cells with 1×PBS, cells were incubated with goat anti-rabbit Alexa 488 (1:500 dilution) for 2 h at RT. Cells were washed 2 times, for 10 min at room temperature with 1×PBS and then mounted onto glass slides using a hard-set mounting media that contains DAPI (Vectashield). Cells were imaged on a Leica microscope.

Structure (SMILES)	splicing defects (exon 22) of Serca1 ([1]; 10 μg intramuscular, right tibialis anterior)	binding to FAM-CUG10 [2]	modification of the hairpin loops formed by the CUG repeats (2-AP fluorescence) [3]	MBNL1 sequestration / MBNL1 release (nuclear area where MBNL1 present) [4]	formation of foci (MBNL1 ribonuclear foci) [4]	splicing defects (exon 22) of Serca1 ([1]; 100 μg intramuscular, left quadriceps)	decreases in the fluorescence of 2-AP ([3]; change to more structured double-stranded)
CN(C)CCc1cc2c(c3c1ccc1ccccc13)OCO2 [VLT002, Stephenanthrine]	partially reversed splicing defects	bind to FAM-CUG10	modify the hairpin loops	MBNL1 sequestration is relieved; also recorded: relieve MBNL1 sequestration	reduced formation of the foci; also recorded: effectively reduce the formation of foci	–	–
C[N+](C)(C)CCc1cc2c(c3c1ccc1ccccc13)OCO2 [VLT025]	–	bind to FAM-CUG10	modify the hairpin loops	relieve MBNL1 sequestration	effectively reduce the formation of foci	partially reversed splicing defects	noteworthy decreases

— patent US20160194274A1, “PHENANTHRENE DERIVATIVES FOR USE AS MEDICAMENTS” (VALENTIA BIOPHARMA, priority 2012, published 2016)
